Key:
DIGSA (large crabgrass) = experiment: Pre-plant incorporated (PPI) herbicidal activity, warm season; format: in vivo, Digitaria sanguinalis; details: for inhibition at 10 g/ha / inhibition at 30 g/ha / inhibition at 100 g/ha / inhibition at 300 g/ha / inhibition at 900 g/ha: Digitaria sanguinalis, read-out: Percent inhibition DIGSA; for inhibition at 10 g/ha / inhibition at 30 g/ha / inhibition at 100 g/ha / inhibition at 300 g/ha / inhibition at 900 g/ha / Percent inhibition DIGSA: PPI application; for PPI activity GR80, DIGSA: pre-plant incorporated, lowest tested rate with 80% or greater inhibition, about 14 days
Procedure: (§1) In another set of tests, the pre-plant incorporated (PPI) activity of compounds of this invention was evaluated on the same species as for the pre-emergence tests described above. In the PPI tests the following procedure, designed to simulate PPI application, was used.
(§2) A pre-prepared topsoil mixture (described above) was placed in a pot and compacted to a depth of 1.0 to 1.25 cm from the top of the pot. Seeds of each of several monocotyledonous and dicotyledonous annual plant species were placed on top of the soil. A sufficient quantity of soil to cover the seeds and level fill the pot was weighed into an open container. A known amount of the test compound was dissolved or suspended in an organic solvent and applied by spraying to this cover soil. The cover soil was thoroughly mixed to distribute the test compound throughout the cover soil, and was then applied as a cover layer over the seeds. Untreated soil was used as a cover layer for control pots. After treatment the plants were placed in a greenhouse where they received 0.64 cm of overhead irrigation. All subsequent watering consisted of a light overhead mist and/or subirrigation as needed for germination and growth. Tables 9 and 10 below relate to warm season plant species which were placed after pre-emergence treatment in a greenhouse with a 30/21° C. day/night temperature regime. Tables 11 and 12 below relates to cool season plant species placed after pre-emergence treatment in a greenhouse or growth chamber with an 18/13° C. day/night temperature regime. Only the compounds of Examples 1, 6, 8, 11, 13 and 15-20 were included in PPI tests.
(§3) Approximately 14 days after planting and treating, the plants were observed and herbicidal efficacy recorded as percent inhibition by comparison with untreated plants.

barley (HORVX) = experiment: Selectivity test, PPI, cool season crop; format: in vivo, Hordeunm vulgare; details: PPI application
Procedure: as §2, §3
Additional pre-emergence and PPI tests were conducted by the procedures described above, on warm and cool season weed species in the presence of crop species, to assess herbicidal selectivity. Crop species included in warm season tests were corn (Zea mays, ZEAMX), rice (Oryza sativa, ORYSA) and soybean (Glycine max, GLYMX). Crop species included in cool season tests were wheat (Triticum aestivum, TRZAW), barley (Hordeunm vulgare, HORVX) and oilseed rape (Brassica napus, BRSNS).
Tables 15 and 16 relate to pre-emergence and PPI tests respectively on warm season species. Table 17 relates to pre-emergence tests on cool season species.

[1] = system: AGRRE (quackgrass (seedling)); experiment: Pre-plant incorporated (PPI) herbicidal activity, cool season; format: in vivo, Elymus repens; details: for PPI activity GR80, AGRRE: pre-plant incorporated, lowest tested rate with 80% or greater inhibition, about 14 days
Procedure: as §1, §2, §3

[2] = system: SORHA (johnsongrass (seedling)); experiment: Pre-emergence herbicidal activity, warm season; format: in vivo, Sorghum halepense; details: for Pre-emergence activity (GR80) SORHA: GR80 = lowest tested rate (300, 100, 30, 10 g/ha) with 80% or greater inhibition, approx. 14 days after treating, 30/21° C.
Procedure, shortened: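 Seeds sown in sterilised fertilised topsoil received surface-applied compound in 50:50 acetone/water, typically at 300, 100, 30 and 10 g/ha, then greenhouse-grown at 30/21° C (warm-season species) or 18/13° C (cool-season species). Percent inhibition versus untreated plants was scored at about 14 days, giving GR80; an asterisk marks activity short of 80% at the top rate.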

POLCO (wild buckwheat) = experiment: Pre-emergence herbicidal activity, cool season; format: in vivo, Polygonum convolvulus; details: lowest tested rate with 80% or greater inhibition; rates 300, 100, 30, 10 g/ha; about 14 days
Procedure, shortened: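 Activity is expressed as the rate giving 80% inhibition, with 300, 100, 30 and 10 g/ha typically tested. An asterisk marks activity short of 80% at the top rate. Warm-season grasses were held at 30/21 °C; cool-season blackgrass and wild buckwheat at 18/13 °C; scoring at about 14 days.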

SASKR (russian thistle) = experiment: Pre-plant incorporated (PPI) herbicidal activity, cool season; format: in vivo, Salsola kali; details: for PPI activity GR80, SASKR: pre-plant incorporated, lowest tested rate with 80% or greater inhibition, about 14 days
Procedure: as §1, §2, §3

[3] = Hordeum vulgare, 30 g/ha, read-out: Percent inhibition HORVX
[4] = Hordeum vulgare, 100 g/ha, read-out: Percent inhibition HORVX
[5] = Hordeum vulgare, 300 g/ha, read-out: Percent inhibition HORVX
[6] = Hordeum vulgare, 900 g/ha, read-out: Percent inhibition HORVX
[7] = Elymus repens, weed, PPI application, 30 g/ha, read-out: Percent inhibition AGRRE
[8] = Elymus repens, weed, PPI application, 100 g/ha, read-out: Percent inhibition AGRRE
[9] = Elymus repens, weed, PPI application, 300 g/ha, read-out: Percent inhibition AGRRE
[10] = Elymus repens, weed, PPI application, 900 g/ha, read-out: Percent inhibition AGRRE
[11] = Salsola kali, weed, PPI application, 30 g/ha, read-out: Percent inhibition SASKR
[12] = Salsola kali, weed, PPI application, 100 g/ha, read-out: Percent inhibition SASKR
[13] = Salsola kali, weed, PPI application, 300 g/ha, read-out: Percent inhibition SASKR
[14] = Salsola kali, weed, PPI application, 900 g/ha, read-out: Percent inhibition SASKR
[15] = weed, PPI application, 100 g/ha
[16] = weed, PPI application, 300 g/ha
[17] = weed, PPI application, 900 g/ha

Compound	inhibition at 10 g/ha (DIGSA (large crabgrass))	inhibition at 30 g/ha (DIGSA (large crabgrass); 30 g/ha)	inhibition at 100 g/ha (DIGSA (large crabgrass); 100 g/ha)	inhibition at 300 g/ha (DIGSA (large crabgrass); 300 g/ha)	inhibition at 900 g/ha (DIGSA (large crabgrass); 900 g/ha)	PPI activity GR80, DIGSA (DIGSA (large crabgrass))	inhibition at 30 g/ha (barley (HORVX); [3])	inhibition at 100 g/ha (barley (HORVX); [4])	inhibition at 300 g/ha (barley (HORVX); [5])	inhibition at 900 g/ha (barley (HORVX); [6])	inhibition at 30 g/ha [1, 7]	inhibition at 100 g/ha [1, 8]	inhibition at 300 g/ha [1, 9]	inhibition at 900 g/ha [1, 10]	PPI activity GR80, AGRRE [1]	Pre-emergence activity (GR80) SORHA [2]	Pre-emergence activity GR80, POLCO (POLCO (wild buckwheat))	inhibition at 30 g/ha (SASKR (russian thistle); [11])	inhibition at 100 g/ha (SASKR (russian thistle); [12])	inhibition at 300 g/ha (SASKR (russian thistle); [13])	also measured
CCN(CC)C(=O)n1cnc(S(=O)(=O)C(F)(F)Br)n1 [Example 1, 3-(bromodifluoromethylsulfonyl)-1-(N,N-diethylcarbamoyl)-1,2,4-triazole]	80%	95%	100%	100%	100%	100 g/ha	0%	10%	30%	50%	0%	20%	60%	95%	* (activity observed, at least at highest rate, but <80% inhibition)	30 g/ha	[empty]	80%	100%	100%	inhibition at 10 g/ha ([2]; Sorghum halepense, pre-emergence application, 10 g/ha, read-out: Percent inhibition, weed SORHA): 0%; inhibition at 30 g/ha ([2]; Sorghum halepense, pre-emergence application, 30 g/ha, read-out: Percent inhibition, weed SORHA): 0%; inhibition at 100 g/ha ([2]; Sorghum halepense, pre-emergence application, 100 g/ha, read-out: Percent inhibition, weed SORHA): 50%; inhibition at 300 g/ha ([2]; Sorghum halepense, pre-emergence application, 300 g/ha, read-out: Percent inhibition, weed SORHA): 70%; inhibition at 900 g/ha ([2]; Sorghum halepense, pre-emergence application, 900 g/ha, read-out: Percent inhibition, weed SORHA): 99%; inhibition at 900 g/ha (SASKR (russian thistle); [14]): 100%; PPI activity GR80, SASKR (SASKR (russian thistle)): 100 g/ha
CCN(CC)C(=O)n1cnc(S(=O)(=O)C(F)(F)C(F)(F)SC)n1 [Example 14]	–	–	–	–	–	–	–	–	–	–	–	–	–	–	–	300 g/ha	300 g/ha	–	–	–	–
CCN(CC)C(=O)n1cnc(S(=O)(=O)C(F)(F)F)n1 [Example 2]	–	–	–	–	–	–	–	–	–	–	–	–	–	–	–	100 g/ha	[empty]	–	–	–	Percent inhibition DIGSA (DIGSA (large crabgrass); 30 g/ha): 85%; Percent inhibition DIGSA (DIGSA (large crabgrass); 100 g/ha): 99%; Percent inhibition DIGSA (DIGSA (large crabgrass); 300 g/ha): 90%; Percent inhibition DIGSA (DIGSA (large crabgrass); 900 g/ha): 100%; Percent inhibition HORVX (barley (HORVX); 30 g/ha): 0%; Percent inhibition HORVX (barley (HORVX); 100 g/ha): 30%; Percent inhibition HORVX (barley (HORVX); 300 g/ha): 20%; Percent inhibition HORVX (barley (HORVX); 900 g/ha): 100%; Percent inhibition AGRRE ([1]; weed, PPI application, 30 g/ha): 0%; Percent inhibition AGRRE [1, 15]: 0%; Percent inhibition AGRRE [1, 16]: 30%; Percent inhibition AGRRE [1, 17]: 60%; Percent inhibition SASKR (SASKR (russian thistle); weed, PPI application, 30 g/ha): 50%; Percent inhibition SASKR (SASKR (russian thistle); [15]): 80%; Percent inhibition SASKR (SASKR (russian thistle); [16]): 85%; Percent inhibition SASKR (SASKR (russian thistle); [17]): 100%
C=C(C)CC(F)(F)S(=O)(=O)c1ncn(C(=O)N(CC)CC)n1 [Example 18]	20%	80%	80%	100%	100%	30 g/ha	0%	0%	10%	60%	30%	20%	20%	80%	100 g/ha	100 g/ha	300 g/ha	0%	80%	80%	inhibition at 10 g/ha (barley (HORVX); Hordeum vulgare, 10 g/ha, read-out: Percent inhibition HORVX): 0%; inhibition at 10 g/ha ([1]; Elymus repens, weed, PPI application, 10 g/ha, read-out: Percent inhibition AGRRE): 0%; inhibition at 10 g/ha (SASKR (russian thistle); Salsola kali, weed, PPI application, 10 g/ha, read-out: Percent inhibition SASKR): 0%; inhibition at 900 g/ha (SASKR (russian thistle); [14]): 100%; PPI activity GR80, SASKR (SASKR (russian thistle)): 30 g/ha

From US6461997B1, “Triazole sulfones having herbicidal activity” (Monsanto Technology LLC, priority 1999, dated 2002)
